The values that follow come from patent US10034861B2 (priority 2016, dated 2018).

What all share (format): biochemical
One test has as its target PDE1B (Homo sapiens (Human), UniProt Q01064). Put plainly: PDE1 inhibition assay (PDE1B). As to conditions: 15 nM tritium labelled cAMP, 1 hr at room temperature, SPA beads; read-out: PDE1B, IC50. From the text:
(§1) Table 1 lists the IC50 value for inhibition of PDE1 by the compounds of the invention. […] PDE1 assays are described in the Experimental Section.

Another test addresses PDE1C (Homo sapiens (Human), UniProt Q14123). The test is described as follows: biochemical. To be noted: 15 nM tritium labelled cAMP, 1 hr at room temperature, SPA beads.
From the text: as §1

Another test deals with PDE1A (Homo sapiens (Human), UniProt P54750). Put plainly: biochemical. To be noted: 15 nM tritium labelled cAMP, 1 hr at room temperature, SPA beads.
Chain of PDE1A (P54750 whole entry): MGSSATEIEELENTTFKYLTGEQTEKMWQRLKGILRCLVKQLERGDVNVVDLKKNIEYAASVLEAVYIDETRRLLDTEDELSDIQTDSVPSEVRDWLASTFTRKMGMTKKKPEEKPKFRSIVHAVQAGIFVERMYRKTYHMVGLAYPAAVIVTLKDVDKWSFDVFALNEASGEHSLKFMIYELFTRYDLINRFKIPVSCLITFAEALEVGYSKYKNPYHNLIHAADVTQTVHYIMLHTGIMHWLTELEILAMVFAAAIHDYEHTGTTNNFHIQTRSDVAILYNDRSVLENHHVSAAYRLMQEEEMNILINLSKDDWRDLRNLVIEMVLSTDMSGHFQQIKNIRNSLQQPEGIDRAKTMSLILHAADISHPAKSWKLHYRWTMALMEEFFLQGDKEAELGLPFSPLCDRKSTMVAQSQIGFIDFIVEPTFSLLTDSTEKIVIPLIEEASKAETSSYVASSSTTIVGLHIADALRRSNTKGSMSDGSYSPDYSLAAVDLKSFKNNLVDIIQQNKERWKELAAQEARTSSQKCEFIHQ
From the text: as §1

Chain of PDE1B (Q01064 whole entry): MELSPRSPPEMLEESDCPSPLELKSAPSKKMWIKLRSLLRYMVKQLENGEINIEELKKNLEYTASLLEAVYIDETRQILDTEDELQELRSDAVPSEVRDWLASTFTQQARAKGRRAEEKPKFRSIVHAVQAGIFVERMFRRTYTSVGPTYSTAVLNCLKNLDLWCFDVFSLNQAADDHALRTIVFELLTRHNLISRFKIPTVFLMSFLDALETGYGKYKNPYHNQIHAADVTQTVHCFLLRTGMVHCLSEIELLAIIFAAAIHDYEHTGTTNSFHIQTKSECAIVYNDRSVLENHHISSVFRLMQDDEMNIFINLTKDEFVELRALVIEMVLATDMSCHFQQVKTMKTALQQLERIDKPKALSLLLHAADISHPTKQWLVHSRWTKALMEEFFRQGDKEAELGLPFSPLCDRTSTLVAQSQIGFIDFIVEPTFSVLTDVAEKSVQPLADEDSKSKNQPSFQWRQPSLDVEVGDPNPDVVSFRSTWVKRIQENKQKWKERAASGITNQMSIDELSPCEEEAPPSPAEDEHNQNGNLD
Chain of PDE1C (Q14123 whole entry): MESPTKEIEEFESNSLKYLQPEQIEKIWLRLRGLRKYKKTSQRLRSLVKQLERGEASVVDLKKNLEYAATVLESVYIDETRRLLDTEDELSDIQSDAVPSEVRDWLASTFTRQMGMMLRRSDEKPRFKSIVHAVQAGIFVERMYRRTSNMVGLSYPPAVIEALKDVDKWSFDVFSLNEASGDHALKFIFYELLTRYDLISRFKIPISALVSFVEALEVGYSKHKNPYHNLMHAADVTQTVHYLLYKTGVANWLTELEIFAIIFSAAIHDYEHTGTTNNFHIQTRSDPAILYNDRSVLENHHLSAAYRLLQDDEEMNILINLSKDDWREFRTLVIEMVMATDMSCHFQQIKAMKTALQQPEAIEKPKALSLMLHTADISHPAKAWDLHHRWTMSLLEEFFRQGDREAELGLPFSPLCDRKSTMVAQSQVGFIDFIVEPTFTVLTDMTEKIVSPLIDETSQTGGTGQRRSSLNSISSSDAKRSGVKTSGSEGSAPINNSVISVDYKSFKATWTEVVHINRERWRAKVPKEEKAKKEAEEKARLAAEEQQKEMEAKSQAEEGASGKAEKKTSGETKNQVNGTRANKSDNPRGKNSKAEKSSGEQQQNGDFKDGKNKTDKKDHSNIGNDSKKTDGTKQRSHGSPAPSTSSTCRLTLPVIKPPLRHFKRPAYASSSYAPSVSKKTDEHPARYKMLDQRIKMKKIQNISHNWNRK

For orientation: IC50 means the concentration that gives 50% inhibition. As for `CCOc1ncccc1-c1cc(NCc2cccn(C)c2=O)c2c(n1)c(C)nn2C(C)C` [Example 108, 3-[[[5-(2-ethoxy-3-pyridyl)-1-isopropyl-3-methyl-pyrazolo[4,3-b]pyridin-7-yl]amino]methyl]-1-methyl-pyridin-2-one], the values for the half-maximal inhibitory concentration (IC50) at PDE1B, at PDE1C and against PDE1A were 0.36 nM, 12 nM and 2.8 nM, respectively.

On to `CCOc1ncccc1-c1cc(NCc2cnn(CC)c2)c2c(n1)c(C)nn2C(C)C` [Example 109, 5-(2-ethoxy-3-pyridyl)-N-[(1-ethylpyrazol-4-yl)methyl]-1-isopropyl-3-methyl-pyrazolo[4,3-b]pyridin-7-amine], for which the IC50 on PDE1B worked out at 0.66 nM; at PDE1C it was 11 nM; at PDE1A, 4.9 nM.

Consider `CCOc1ncccc1-c1cc(NCc2ccc(OC)nc2)c2c(n1)c(C)nn2C(C)C` [Example 111, 5-(2-ethoxy-3-pyridyl)-1-isopropyl-N-[(6-methoxy-3-pyridyl)methyl]-3-methyl-pyrazolo[4,3-b]pyridin-7-amine], for which the half-inhibitory concentration (IC50) on PDE1B is 1.4 nM; against PDE1C, 68 nM; on PDE1A it was 28 nM.

On to `CCOc1ncccc1-c1cc(NCc2ccc(OC)cn2)c2c(n1)c(C)nn2C(C)C` [Example 112, 5-(2-ethoxy-3-pyridyl)-1-isopropyl-N-[(5-methoxy-2-pyridyl)methyl]-3-methyl-pyrazolo[4,3-b]pyridin-7-amine], for which the 50% inhibitory concentration (IC50) at PDE1B is 12 nM; at PDE1C it was 100 nM; against PDE1A it was 61 nM.

With `CCOc1ncccc1-c1cc(NCc2csc(C)n2)c2c(n1)c(C)nn2C1COC1` [Example 113, 5-(2-ethoxy-3-pyridyl)-3-methyl-N-[(2-methylthiazol-4-yl)methyl]-1-(oxetan-3-yl)pyrazolo[4,3-b]pyridin-7-amine], the results for the IC50 at PDE1B, against PDE1C and on PDE1A were 5.7 nM, 130 nM and 110 nM, respectively.

Turning to `CCOc1ncccc1-c1cc(NCc2cnc(OC)cn2)c2c(n1)c(C)nn2C(C)C` [Example 114, 5-(2-ethoxy-3-pyridyl)-1-isopropyl-N-[(5-methoxypyrazin-2-yl)methyl]-3-methyl-pyrazolo[4,3-b]pyridin-7-amine], the IC50 on PDE1B came to 3 nM; at PDE1C, 46 nM; on PDE1A, 24 nM.

As to `CCOc1ncccc1-c1cc(NCc2cccnc2)c2c(n1)c(C)nn2C(C)C` [Example 115, 5-(2-ethoxy-3-pyridyl)-1-isopropyl-3-methyl-N-(3-pyridylmethyl)pyrazolo[4,3-b]pyridin-7-amine], the IC50 on PDE1B came to 2 nM; on PDE1C, 31 nM; against PDE1A, 15 nM.

Take `CCOc1ncccc1-c1cc(NCc2ccc(F)nc2)c2c(n1)c(C)nn2C(C)C` [Example 116, 5-(2-ethoxy-3-pyridyl)-N-[(6-fluoro-3-pyridyl)methyl]-1-isopropyl-3-methyl-pyrazolo[4,3-b]pyridin-7-amine]: the IC50 on PDE1B is 2.4 nM; on PDE1C, 46 nM; against PDE1A, 21 nM.

For `CCOc1ncccc1-c1cc(NCc2ccc(C(F)F)nc2)c2c(n1)c(C)nn2C(C)C` [Example 117, N-[[6-(difluoromethyl)-3-pyridyl]methyl]-5-(2-ethoxy-3-pyridyl)-1-isopropyl-3-methyl-pyrazolo[4,3-b]pyridin-7-amine], the half-inhibitory concentration (IC50) on PDE1B amounted to 2.3 nM; against PDE1C, 26 nM; against PDE1A, 18 nM.

Turning to `CCOc1ncccc1-c1cc(NCc2ncccc2OC)c2c(n1)c(C)nn2C(C)C` [Example 118, 5-(2-ethoxy-3-pyridyl)-1-isopropyl-N-[(3-methoxy-2-pyridyl)methyl]-3-methyl-pyrazolo[4,3-b]pyridin-7-amine], the IC50 on PDE1B stood at 0.42 nM; against PDE1C, 88 nM; against PDE1A it was 13 nM.

Regarding `CCCOc1ncccc1-c1cc(NCc2cn(C)cn2)c2c(n1)c(C)nn2C(C)C` [Example 142, 1-isopropyl-3-methyl-N-[(1-methylimidazol-4-yl)methyl]-5-(2-propoxy-3-pyridyl)pyrazolo[4,3-b]pyridin-7-amine], the IC50 was determined as 0.1 nM on PDE1B, 0.8 nM at PDE1C and 0.26 nM at PDE1A.

Consider `CCCOc1ncccc1-c1cc(NCc2cc[nH]n2)c2c(n1)c(C)nn2C(C)C` [Example 143, 1-isopropyl-3-methyl-5-(2-propoxy-3-pyridyl)-N-(1H-pyrazol-3-ylmethyl)pyrazolo[4,3-b]pyridin-7-amine], for which the figures for the 50% inhibitory concentration (IC50) on PDE1B, against PDE1C and on PDE1A were 0.26 nM, 9.2 nM and 3.8 nM, respectively.

For `CCCOc1ncccc1-c1cc(NCc2ncn(C)n2)c2c(n1)c(C)nn2C(C)C` [Example 145, 1-isopropyl-3-methyl-N-[(1-methyl-1,2,4-triazol-3-yl)methyl]-5-(2-propoxy-3-pyridyl)pyrazolo[4,3-b]pyridin-7-amine], the half-inhibitory concentration (IC50) on PDE1B came to 0.095 nM; on PDE1C, 1.2 nM; at PDE1A it was 0.41 nM.

As for `CCCOc1ncccc1-c1cc(NCc2nc[nH]n2)c2c(n1)c(C)nn2C(C)C` [Example 146, 1-isopropyl-3-methyl-5-(2-propoxy-3-pyridyl)-N-(1H-1,2,4-triazol-3-ylmethyl)pyrazolo[4,3-b]pyridin-7-amine], the half-maximal inhibitory concentration (IC50) is 0.51 nM at PDE1B, 14 nM on PDE1C and 3.9 nM on PDE1A.

With `Cc1nn(C(C)C)c2c(NCc3cnn(C)c3)cc(-c3nccs3)nc12` [Example 147, 1-isopropyl-3-methyl-N-[(1-methylpyrazol-4-yl)methyl]-5-thiazol-2-yl-pyrazolo[4,3-b]pyridin-7-amine], the 50% inhibitory concentration (IC50) at PDE1B was found to be 2.1 nM; at PDE1C it was 28 nM; against PDE1A it was 12 nM.

Regarding `Cc1cnc(-c2cc(NCc3cnn(C)c3)c3c(n2)c(C)nn3C(C)C)s1` [Example 148, 1-isopropyl-3-methyl-N-[(1-methylpyrazol-4-yl)methyl]-5-(5-methylthiazol-2-yl)pyrazolo[4,3-b]pyridin-7-amine], the IC50 on PDE1B was determined as 58 nM; at PDE1C, 86 nM; at PDE1A, 110 nM.

For the compound `Cc1csc(-c2cc(NCc3cnn(C)c3)c3c(n2)c(C)nn3C(C)C)n1` [Example 149, 1-isopropyl-3-methyl-N-[(1-methylpyrazol-4-yl)methyl]-5-(4-methylthiazol-2-yl)pyrazolo[4,3-b]pyridin-7-amine], the IC50 at PDE1B came to 2.4 nM; against PDE1C it was 69 nM; at PDE1A, 29 nM.

Consider `Cc1nn(C(C)C)c2c(NCc3cnn(C)c3)cc(N3CC(C)OC3=O)nc12` (stereo not drawn) [Example 150, 3-[1-isopropyl-3-methyl-7-[(1-methylpyrazol-4-yl)methylamino]pyrazolo[4,3-b]pyridin-5-yl]-5-methyl-oxazolidin-2-one], for which the concentration for half-maximal inhibition (IC50) on PDE1B was determined as 33 nM; at PDE1C, 13 nM; against PDE1A, 44 nM.

Consider `Cc1nn(C(C)C)c2c(NCc3cnn(C)c3)cc(N3CCOC3=O)nc12` [Example 151, 3-[1-isopropyl-3-methyl-7-[(1-methylpyrazol-4-yl)methylamino]pyrazolo[4,3-b]pyridin-5-yl]oxazolidin-2-one], for which the half-inhibitory concentration (IC50) was determined as 4.7 nM on PDE1B, 12 nM at PDE1C and 10 nM on PDE1A.
